pIC50: −log10 of the molar value. Like-named read-outs stand apart in the source and are kept apart here.

The target of test [1] is T1, Recombinant STAT3 protein (STAT3 (G127-I722)) (Homo sapiens, UniProt P40763).
T1 construct: Recombinant STAT3 protein (STAT3 (G127-I722))
The test can be described thus: STAT3 Fluorescence Polarization (FP) Assay. As to conditions: probe 5-FAM-GpYLPQTV-NH2 2 nM, 45-minute incubation. The test is classed as binding. Summed up: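 Displacement of a fluorescent phosphotyrosine peptide (5-FAM-GpYLPQTV-NH2, 2 nM) from 25 nM recombinant STAT3 G127-I722 was monitored by FP after 45 min at room temperature.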
In general terms: Polarisation of emitted light reports the rotation of a fluorescent probe.

For test [2], the target named is T2, Recombinant STAT6 protein (STAT6 (W123-T658)) (Homo sapiens, UniProt P42226).
T2 construct: Recombinant STAT6 protein (STAT6 (W123-T658))
T2 sequence (P42226 123-658): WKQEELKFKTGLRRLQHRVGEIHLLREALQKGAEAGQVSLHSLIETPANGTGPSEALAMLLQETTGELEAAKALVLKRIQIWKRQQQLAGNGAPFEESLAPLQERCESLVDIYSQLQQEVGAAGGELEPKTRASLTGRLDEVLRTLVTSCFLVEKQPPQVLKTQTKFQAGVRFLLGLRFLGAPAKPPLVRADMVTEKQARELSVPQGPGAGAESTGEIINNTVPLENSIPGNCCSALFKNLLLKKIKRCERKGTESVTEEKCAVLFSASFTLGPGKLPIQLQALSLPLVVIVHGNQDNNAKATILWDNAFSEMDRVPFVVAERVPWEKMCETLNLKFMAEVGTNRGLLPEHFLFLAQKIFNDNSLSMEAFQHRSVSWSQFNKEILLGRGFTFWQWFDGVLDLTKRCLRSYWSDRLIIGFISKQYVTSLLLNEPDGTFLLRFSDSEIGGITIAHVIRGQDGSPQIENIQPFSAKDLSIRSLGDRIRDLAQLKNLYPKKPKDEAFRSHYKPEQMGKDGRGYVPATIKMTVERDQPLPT
Briefly: STAT6 Fluorescence Polarization (FP) Assay. The test is classed as binding. The conditions noted are these: 45-minute incubation. Summed up: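 Fluorescence polarization (mP) read-out: 250 nM STAT6 (W123-T658) plus 2 nM 5-FAM phosphotyrosine peptide, 45 min, room temperature, 1% DMSO. IC50 by nonlinear fit of mP against log compound concentration.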

Where [3] appears, read: STAT3 25 nM, read-out: STAT3 (FP assay IC50).
Where [4] appears, read: STAT6 250 nM, probe 5-FAM-Ap[…]-NH2 2 nM, read-out: STAT6 (FP assay IC50).
The mark [5] stands for this setting: STAT6 250 nM, probe 5-FAM-ApYKPFQDLI-NH2 2 nM, read-out: STAT6 (FP assay IC50).
[6] abbreviates: STAT3 (G127-I722) 25 nM, read-out: STAT3 (FP assay IC50 class).
Setting [7] is: STAT6 (W123-T658) 250 nM, probe 5-FAM-ApYKPFQDLI-NH2 2 nM, read-out: STAT6 (FP assay IC50 class).
Where [8] appears, read: STAT6 (W123-T658) 250 nM, probe 5-FAM-Ap[…]-NH2 2 nM, read-out: STAT6 (FP assay IC50 class).

T1 sequence (P40763 127-722): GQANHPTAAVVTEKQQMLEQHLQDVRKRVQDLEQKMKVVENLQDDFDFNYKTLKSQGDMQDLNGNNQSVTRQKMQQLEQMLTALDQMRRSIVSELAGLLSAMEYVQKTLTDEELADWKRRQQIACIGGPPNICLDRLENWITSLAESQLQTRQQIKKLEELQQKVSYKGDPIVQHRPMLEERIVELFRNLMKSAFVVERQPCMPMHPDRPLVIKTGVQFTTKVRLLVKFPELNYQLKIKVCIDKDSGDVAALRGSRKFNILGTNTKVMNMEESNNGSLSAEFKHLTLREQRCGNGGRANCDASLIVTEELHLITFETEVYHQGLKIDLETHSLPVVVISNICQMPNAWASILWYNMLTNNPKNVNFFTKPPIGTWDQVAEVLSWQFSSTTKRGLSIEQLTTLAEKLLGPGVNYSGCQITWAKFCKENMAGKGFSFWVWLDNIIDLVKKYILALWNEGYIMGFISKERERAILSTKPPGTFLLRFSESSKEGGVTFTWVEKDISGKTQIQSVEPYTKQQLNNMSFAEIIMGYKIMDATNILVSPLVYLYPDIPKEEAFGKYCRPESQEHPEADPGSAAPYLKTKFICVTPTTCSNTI

`N#C[C@@H]1CN(C(=O)[C@@H]2CC[C@@H]3CCCC[C@H](NC(=O)c4cc5cc(C(F)(F)P(=O)(O)O)ccc5s4)C(=O)N32)C[C@H]1c1ccccc1` (single isomer, unassigned) [Compound 22, ((2-(((3S,6S,10aS)-3-((3S,4R or 3R,4S))-3-cyano-4-phenylpyrrolidine-1-carbonyl)-5-oxodecahydropyrrolo [1,2-a]azocin-6-yl)carbamoyl)benzo[b]thiophen-5-yl) difluoromethyl) phosphonic acid]: the negative-log IC50 (pIC50) (commonly the negative decadic logarithm of the IC50, by convention in mol/L) was 5.00 to 6.00 in test [1] (setting [3]) and at least 6.52 in test [2] (setting [4]).
Turning to `N#C[C@@H]1CN(C(=O)[C@@H]2CC[C@@H]3CCCC[C@H](NC(=O)c4ccc5ccc(C(F)(F)P(=O)(O)O)cc5c4)C(=O)N32)C[C@H]1c1cc[nH]c(=O)c1` (single isomer, unassigned) [Compound 79, ((7-(((3S,6S,10aS)-3-((3S,4R or 3R,4S)-3-cyano-4-(2-oxo-1,2-dihydropyridin-4-yl)pyrrolidine-1-carbonyl)-5-oxodecahydropyrrolo [1,2-a]azocin-6-yl)carbamoyl)naphthalen-2-yl)difluoromethyl) phosphonic acid], the results for the negative-log IC50 (pIC50) in test [1] (setting [3]) and in test [2] (setting [5]) were 6.00 to 7.00 and at least 6.52, respectively.
As for `N#C[C@H]1CN(C(=O)[C@@H]2CC[C@@H]3CCCC[C@H](NC(=O)c4ccc5ccc(C(F)(F)P(=O)(O)O)cc5c4)C(=O)N32)C[C@@H]1c1cc[nH]c(=O)c1` (single isomer, unassigned) [Compound 80, ((7-(((3S,6S,10aS)-3-((3R,4S or 3S,4R)-3-cyano-4-(2-oxo-1,2-dihydropyridin-4-yl)pyrrolidine-1-carbonyl)-5-oxodecahydropyrrolo [1,2-a]azocin-6-yl)carbamoyl)naphthalen-2-yl)difluoromethyl) phosphonic acid], the negative logarithm of the IC50 (pIC50) in test [1] (setting [3]) was 6.00 to 7.00; in test [2] (setting [5]) it was at least 6.52.
The like results for `N#C[C@H]1CN(C(=O)[C@@H]2CC[C@@H]3CCCC[C@H](NC(=O)c4cc5cc(CP(=O)(O)O)ccc5s4)C(=O)N32)C[C@@H]1c1ccccc1` (single isomer, unassigned) [Compound 90, ((2-(((3S,6S,10aS)-3-((3R,4S or 3S,4R)-3-cyano-4-phenylpyrrolidine-1-carbonyl)-5-oxodecahydropyrrolo [1,2-a]azocin-6-yl)carbamoyl)benzo[b]thiophen-5-yl)methyl) phosphonic acid] were, in that order, below 5.00 and 5.52 to 6.52.
Turning to `CC1CCC[C@H](NC(=O)c2cc3cc(C(F)(F)P(=O)(O)O)ccc3s2)C(=O)N2[C@@H]1CC[C@H]2C(=O)N1C[C@H](c2cc[nH]c(=O)c2)[C@@H](C#N)C1` (single isomer, unassigned) [Compound 104, ((2-(((3S,6S,10aR)-3-((3R,4S or 3S,4R)-3-cyano-4-(2-oxo-1,2-dihydropyridin-4-yl)pyrrolidine-1-carbonyl)-10-methyl-5-oxodecahydropyrrolo [1,2-a]azocin-6-yl)carbamoyl)benzo[b]thiophen-5-yl)difluoromethyl) phosphonic acid], the negative logarithm of the IC50 (pIC50) in test [1] (setting [3]) was 6.00 to 7.00; in test [2] (setting [5]) it was 5.52 to 6.52.
For `N#C[C@@H]1CN(C(=O)[C@@H]2C[C@@H](O)[C@@H]3CCCCC[C@H](NC(=O)c4ccc5ccc(C(F)(F)P(=O)(O)O)cc5c4)C(=O)N23)C[C@H]1c1cc[nH]c(=O)c1` (single isomer, unassigned) [Compound 106, ((7-(((1R,3S,6S, 11aS)-3-((3S,4R or 3R,4S)-3-cyano-4-(2-oxo-1,2-dihydropyridin-4-yl)pyrrolidine-1-carbonyl)-1-hydroxy-5-oxodecahydro-1H-pyrrolo[1,2-a]azonin-6-yl)carbamoyl)naphthalen-2-yl)difluoromethyl) phosphonic acid], the pIC50 in test [1] (setting [3]) is 5.00 to 6.00; in test [2] (setting [4]), at least 6.52.
Regarding `N#C[C@@H]1CN(C(=O)[C@@H]2CCC[C@@H]3CCC[C@H](NC(=O)c4cc5cc(C(F)(F)P(=O)(O)O)ccc5s4)C(=O)N32)C[C@H]1c1ccccc1` (single isomer, unassigned) [Compound 107, ((2-(((4S,7S,10aS)-4-((3S,4R or 3R,4S)-3-cyano-4-phenylpyrrolidine-1-carbonyl)-6-oxodecahydropyrido [1,2-a]azepin-7-yl)carbamoyl)benzo[b]thiophen-5-yl)difluoromethyl) phosphonic acid], the values for the pIC50 in test [1] (setting [3]) and in test [2] (setting [5]) were 6.00 to 7.00 and at least 6.52, respectively.
Turning to `C[C@@H]1C[C@H]2CC[C@@H](C(=O)N3CC(c4cccnc4)C3)N2C(=O)[C@@H](NC(=O)c2cc3cc(C(F)(F)P(=O)(O)O)ccc3s2)C1` (single isomer, unassigned) [Compound 110, (difluoro(2-(((3S,6S,8R,9aR)-8-methyl-5-oxo-3-(3-(pyridin-3-yl)azetidine-1-carbonyl)octahydro-1H-pyrrolo[1,2-a]azepin-6-yl)carbamoyl)benzo[b]thiophen-5-yl)methyl) phosphonic acid or (difluoro(2-(((3S,6S,8S,9aR)-8-methyl-5-oxo-3-(3-(pyridin-3-yl)azetidine-1-carbonyl)octahydro-1H-pyrrolo[1,2-a]azepin-6-yl)carbamoyl)benzo[b]thiophen-5-yl)methyl) phosphonic acid], the negative-log IC50 (pIC50) is above 7.00 in test [1] (setting [3]) and 4.52 to 5.52 in test [2] (setting [4]).
For the molecule `CC(C)[C@@H]1CC[C@H](NC(=O)c2cc3cc(C(F)P(=O)(O)O)ccc3s2)C(=O)N2[C@H](CC[C@H]2C(=O)N2C[C@H](c3ccccc3)[C@@H](C#N)C2)C1` (single isomer, unassigned) [Compound 212], the negative logarithm of the IC50 (pIC50) was 5.00 to 6.00 in test [1] (setting [6]) and at least 6.52 in test [2] (setting [7]).
`N#C[C@@H]1CN(C(=O)[C@@H]2CC[C@@H]3CCCC[C@H](NC(=O)c4cc5cc(C(F)P(=O)(O)O)ccc5s4)C(=O)N32)C[C@H]1c1ccccc1` (single isomer, unassigned) [Compound 224]: the negative logarithm of the IC50 (pIC50) in test [1] (setting [6]) is 5.00 to 6.00; in test [2] (setting [8]), at least 6.52.
Consider `N#C[C@@H]1CN(C(=O)[C@@H]2CC[C@@H]3CCCC[C@H](NC(=O)c4cc5cc(C(F)P(=O)(O)O)ccc5s4)C(=O)N32)C[C@H]1c1ccccc1` (single isomer, unassigned) [Compound 225], for which the pIC50 in test [1] (setting [6]) is 5.00 to 6.00; in test [2] (setting [7]), at least 6.52.
For `N#C[C@@H]1CN(C(=O)[C@@H]2CC[C@@H]3CCCC[C@H](NC(=O)c4ccc5ccc(C(F)P(=O)(O)O)cc5c4)C(=O)N32)C[C@H]1c1ccccc1` (single isomer, unassigned) [Compound 226], the figures for the negative-log IC50 (pIC50) in test [1] (setting [6]) and in test [2] (setting [8]) were 5.00 to 6.00 and at least 6.52, respectively.
On the same counts, the results for `Cn1ccc([C@@H]2CN(C(=O)[C@@H]3CC[C@@H]4CCCC[C@H](NC(=O)c5cc6cc(C(F)P(=O)(O)O)ccc6s5)C(=O)N43)C[C@H]2C#N)cc1=O` (single isomer, unassigned) [Compound 227] are 6.00 to 7.00 and 5.52 to 6.52.
`Cn1ccc([C@@H]2CN(C(=O)[C@@H]3CC[C@@H]4CCCC[C@H](NC(=O)c5cc6cc(C(F)P(=O)(O)O)ccc6s5)C(=O)N43)C[C@H]2C#N)cc1=O` (single isomer, unassigned) [Compound 228]: the negative logarithm of the IC50 (pIC50) in test [1] (setting [6]) was 5.00 to 6.00; in test [2] (setting [7]) it was 5.52 to 6.52.
Consider `N#C[C@@H]1CN(C(=O)[C@@H]2CC[C@@H]3CCC[C@H](NC(=O)c4cc5cc(C(F)P(=O)(O)O)ccc5s4)C(=O)N32)C[C@H]1c1ccccc1` (single isomer, unassigned) [Compound 232], for which the pIC50 was 5.00 to 6.00 in test [1] (setting [6]) and 5.52 to 6.52 in test [2] (setting [8]).
The like results for `N#C[C@@H]1CN(C(=O)[C@@H]2CC[C@@H]3CCC[C@@H](C4CC4)[C@H](NC(=O)c4cc5cc(C(F)(F)P(=O)(O)O)ccc5s4)C(=O)N32)C[C@H]1c1ccccc1` (single isomer, unassigned) [Compound 234] were, in that order, 5.00 to 6.00 and at least 6.52.
The like results for `CC[C@@H]1CC[C@H](NC(=O)c2cc3cc(C(F)P(=O)(O)O)ccc3s2)C(=O)N2[C@H](CC[C@H]2C(=O)N2C[C@@H](C#N)[C@H](c3ccccc3)C2)C1` (single isomer, unassigned) [Compound 235] were, in that order, 5.00 to 6.00 and at least 6.52.
Take `CC[C@H]1CC[C@H](NC(=O)c2cc3cc(C(F)P(=O)(O)O)ccc3s2)C(=O)N2[C@H](CC[C@H]2C(=O)N2C[C@@H](C#N)[C@H](c3ccccc3)C2)C1` (single isomer, unassigned) [Compound 237]: the results for the pIC50 in test [1] (setting [6]) and in test [2] (setting [8]) were 5.00 to 6.00 and at least 6.52, respectively.

These data come from patent US20250215029A1 (Recludix Pharma, Inc., priority 2022, published 2025).
